In patent US10227357B2, “Compounds and methods for kinase modulation, and indications therefor” (Plexxikon Inc., priority 2012, dated 2019):

Assays:
c-kit mutant D816V = target: T1, c-kit mutant D816V (Homo sapiens, UniProt P10721, D816V/DEL694-753); assay: c-Kit mutant D816V biochemical assay, AlphaScreen; settings: c-kit D816V biochemical inhibitory activity; read-out: Biochemical activity (IC50 μM) Kit D816V
T1 construct: residues 551-934, kinase insertion domain residues 694-753 deleted; 6x-histidine (N); made in house; host or cells: E. coli Arctic Express (DE3) RIL (Stratagene)
T1 sequence (P10721 with tags, fused parts or gaps DEL694-753/D816V): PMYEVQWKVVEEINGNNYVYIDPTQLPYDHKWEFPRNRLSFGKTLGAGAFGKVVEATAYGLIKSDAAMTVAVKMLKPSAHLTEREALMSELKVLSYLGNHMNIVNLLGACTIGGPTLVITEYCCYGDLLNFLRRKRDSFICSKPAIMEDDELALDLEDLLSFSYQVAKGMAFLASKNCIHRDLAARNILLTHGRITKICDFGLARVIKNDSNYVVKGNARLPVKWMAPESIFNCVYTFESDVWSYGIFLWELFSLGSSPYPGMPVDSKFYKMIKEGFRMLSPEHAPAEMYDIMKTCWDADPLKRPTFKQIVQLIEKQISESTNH
Outline: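 Purified His-tagged c-Kit D816V (E. coli-expressed) assayed in 25 mM HEPES pH 7.2 with Mg/Mn, 5% DMSO and 10 μM ATP, 30 min at room temperature, 8-point 1:3 dilutions. Phosphorylation detected by AlphaScreen with streptavidin donor and PY20 acceptor beads; IC50 from signal versus concentration.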

c-kit kinase = target: T2, c-kit kinase (Homo sapiens, UniProt P10721); assay: c-Kit biochemical assay, AlphaScreen, 10 μM ATP; settings: c-kit biochemical inhibitory activity; read-out: Biochemical activity (IC50 μM) Kit
T2 construct: The c-kit (or kinase domain thereof) is an active kinase in AlphaScreen; poly-Histidine tag (in-house protein only) (cleaved yes); host or cells: E. coli BL21(DE3)RIL, co-expressed with PTP1B
T2 sequence (P10721 26-976): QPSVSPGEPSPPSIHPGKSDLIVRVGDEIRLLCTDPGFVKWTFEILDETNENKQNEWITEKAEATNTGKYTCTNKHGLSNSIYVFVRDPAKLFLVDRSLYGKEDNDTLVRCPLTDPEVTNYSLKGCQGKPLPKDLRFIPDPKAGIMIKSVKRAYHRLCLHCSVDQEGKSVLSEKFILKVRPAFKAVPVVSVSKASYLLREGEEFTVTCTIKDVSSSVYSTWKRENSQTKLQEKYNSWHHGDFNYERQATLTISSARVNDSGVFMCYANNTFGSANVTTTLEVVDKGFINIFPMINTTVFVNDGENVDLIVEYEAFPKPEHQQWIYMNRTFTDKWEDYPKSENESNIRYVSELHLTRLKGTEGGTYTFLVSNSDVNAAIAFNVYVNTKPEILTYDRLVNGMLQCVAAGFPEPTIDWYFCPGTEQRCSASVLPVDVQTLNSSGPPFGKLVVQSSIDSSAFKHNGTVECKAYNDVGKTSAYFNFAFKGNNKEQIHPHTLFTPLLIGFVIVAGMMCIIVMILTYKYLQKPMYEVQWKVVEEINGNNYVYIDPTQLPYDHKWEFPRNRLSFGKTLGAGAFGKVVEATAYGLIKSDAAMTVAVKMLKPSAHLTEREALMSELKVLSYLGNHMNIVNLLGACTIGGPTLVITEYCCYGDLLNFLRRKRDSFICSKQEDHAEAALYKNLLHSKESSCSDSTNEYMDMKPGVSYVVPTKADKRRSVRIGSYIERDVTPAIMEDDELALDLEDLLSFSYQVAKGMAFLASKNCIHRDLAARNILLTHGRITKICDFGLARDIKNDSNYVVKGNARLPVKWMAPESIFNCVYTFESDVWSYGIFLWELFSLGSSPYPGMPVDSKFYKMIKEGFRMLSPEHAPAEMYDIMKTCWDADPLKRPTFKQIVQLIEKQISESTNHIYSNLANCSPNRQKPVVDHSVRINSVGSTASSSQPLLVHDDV
Outline: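 His-tagged c-Kit expressed in E. coli with co-expressed PTP1B (dephosphorylated), tag removed; 0.1 ng per reaction with biotinylated-peptide substrate in 50 mM HEPES pH 7.2, 5 mM MgCl2, 5 mM MnCl2, 5% DMSO, 10 μM ATP, 1 h at room temperature. Phosphorylation detected by AlphaScreen (streptavidin donor, PY20 acceptor beads); IC50 from 8-point 1:3 dilution series.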

Structure (SMILES): O=S(=O)(Nc1cccc(-c2ncnc3[nH]c(-c4ccc(F)cc4)cc23)c1)C1CC1 [P-0413, N-[3-[6-(4-fluorophenyl)-7H-pyrrolo[2,3-d]pyrimidin-4-yl]phenyl]cyclopropanesulfonamide]
- IC50 (c-kit mutant D816V): 1 to 10 µM
- IC50 (c-kit kinase): 1 to 10 µM

Structure (SMILES): C[C@@H]1CN(c2ncnc3[nH]c(-c4ccc(F)cc4)cc23)CCN1C(=O)N[C@H](C)c1ccc(Cl)cc1 [P-0035, (2R)-N-[(1R)-1-(4-chlorophenyl)ethyl]-4-[6-(4-fluorophenyl)-7H-pyrrolo[2,3-d]pyrimidin-4-yl]-2-methyl-piperazine-1-carboxamide]
- IC50 (c-kit mutant D816V): 1 to 10 µM
- IC50 (c-kit kinase): 10 to 200 µM

Structure (SMILES): NS(=O)(=O)c1ccc(-c2cc3c(N4CCN(C(=O)Nc5ccc(OC(F)(F)F)cc5)CC4)ncnc3[nH]2)cc1 [P-0100, 4-[6-(4-sulfamoylphenyl)-7H-pyrrolo[2,3-d]pyrimidin-4-yl]-N-[4-(trifluoromethoxy)phenyl]piperazine-1-carboxamide]
- IC50 (c-kit mutant D816V): 1 to 10 µM
- IC50 (c-kit kinase): 0.0001 to 1 µM

Structure (SMILES): CCCS(=O)(=O)Nc1ccc(-c2ncnc3[nH]c(-c4ccc(F)cc4)cc23)cc1F [P-0403, N-[2-fluoro-4-[6-(4-fluorophenyl)-7H-pyrrolo[2,3-d]pyrimidin-4-yl]phenyl]propane-1-sulfonamide]
- IC50 (c-kit mutant D816V): 0.0001 to 1 µM
- IC50 (c-kit kinase): 0.0001 to 1 µM

Structure (SMILES): CNC(=O)c1cccc(-c2cc3c(N4CCN(C(=O)Nc5ccc(OC(F)(F)F)cc5)CC4)ncnc3[nH]2)c1 [P-0116, 4-[6-[3-(methylcarbamoyl)phenyl]-7H-pyrrolo[2,3-d]pyrimidin-4-yl]-N-[4-(trifluoromethoxy)phenyl]piperazine-1-carboxamide]
- IC50 (c-kit mutant D816V): 10 to 200 µM
- IC50 (c-kit kinase): 0.0001 to 1 µM

Structure (SMILES): CCOc1cccc(NC(=O)N2CCN(c3ncnc4[nH]c(-c5cccnc5)cc34)CC2)c1 [P-0221, N-(3-ethoxyphenyl)-4-[6-(3-pyridyl)-7H-pyrrolo[2,3-d]pyrimidin-4-yl]piperazine-1-carboxamide]
- IC50 (c-kit mutant D816V): 0.0001 to 1 µM
- IC50 (c-kit kinase): 1 to 10 µM

Structure (SMILES): CCCCc1ccc(S(=O)(=O)Nc2ccc(-c3ncnc4[nH]c(C)cc34)cc2)cc1 [P-0287, 4-butyl-N-[4-(6-methyl-7H-pyrrolo[2,3-d]pyrimidin-4-yl)phenyl]benzenesulfonamide]
- IC50 (c-kit mutant D816V): 1 to 10 µM
- IC50 (c-kit kinase): 10 to 200 µM

Structure (SMILES): Cc1cc2c(-c3ccc(NS(=O)(=O)c4ccc(OC(C)C)cc4)cc3)ncnc2[nH]1 [P-0311, 4-isopropoxy-N-[4-(6-methyl-7H-pyrrolo[2,3-d]pyrimidin-4-yl)phenyl]benzenesulfonamide]
- IC50 (c-kit mutant D816V): 10 to 200 µM
- IC50 (c-kit kinase): 10 to 200 µM

Structure (SMILES): Cc1ccc(S(=O)(=O)NC2CCN(c3ncnc4[nH]c(-c5cnn(C)c5)cc34)CC2)cc1 [P-0451, 4-methyl-N-[1-[6-(1-methylpyrazol-4-yl)-7H-pyrrolo[2,3-d]pyrimidin-4-yl]-4-piperidyl]benzenesulfonamide]
- IC50 (c-kit mutant D816V): 0.0001 to 1 µM
- IC50 (c-kit kinase): 1 to 10 µM

Structure (SMILES): Cc1n[nH]c2ncnc(-c3ccc(NS(=O)(=O)c4ccc(C(F)(F)F)nc4)cc3)c12 [P-0441, N-[4-(3-methyl-1H-pyrazolo[3,4-d]pyrimidin-4-yl)phenyl]-6-(trifluoromethyl)pyridine-3-sulfonamide]
- IC50 (c-kit mutant D816V): 0.0001 to 1 µM
- IC50 (c-kit kinase): 10 to 200 µM

Structure (SMILES): Cc1ccc(S(=O)(=O)Nc2ccc(-c3ncnc4[nH]c(C)nc34)cc2)cc1 [P-0450, 4-methyl-N-[4-(8-methyl-9H-purin-6-yl)phenyl]benzenesulfonamide]
- IC50 (c-kit mutant D816V): 1 to 10 µM
- IC50 (c-kit kinase): 10 to 200 µM

Structure (SMILES): Cc1ccc([C@H](C)NC(=O)N2CCN(c3ncnc4[nH]c(-c5ccc(F)cc5)cc34)C[C@H]2C)cc1 [P-0712, (2R)-4-[6-(4-fluorophenyl)-7H-pyrrolo[2,3-d]pyrimidin-4-yl]-2-methyl-N-[(1S)-1-(p-tolyl)ethyl]piperazine-1-carboxamide]
- IC50 (c-kit mutant D816V): 0.0001 to 1 µM
- IC50 (c-kit kinase): 10 to 200 µM

Structure (SMILES): C[C@H](NC(=O)N1CCN(c2ncnc3cc(-c4ccc(F)cc4)sc23)CC1(C)C)c1ccc(Cl)cc1 [P-0575, N-[(1S)-1-(4-chlorophenyl)ethyl]-4-[6-(4-fluorophenyl)thieno[3,2-d]pyrimidin-4-yl]-2,2-dimethyl-piperazine-1-carboxamide]
- IC50 (c-kit mutant D816V): 0.0001 to 1 µM
- IC50 (c-kit kinase): 10 to 200 µM

Structure (SMILES): O=C(Nc1ccccc1Cl)N1CCN(c2ncnc3[nH]c(-c4cccnc4)cc23)CC1 [P-0220, N-(2-chlorophenyl)-4-[6-(3-pyridyl)-7H-pyrrolo[2,3-d]pyrimidin-4-yl]piperazine-1-carboxamide]
- IC50 (c-kit mutant D816V): 0.0001 to 1 µM
- IC50 (c-kit kinase): 0.0001 to 1 µM

Structure (SMILES): Cn1cc(-c2cc3c(N4CCN(c5nc6ccccc6[nH]5)CC4)ncnc3[nH]2)cn1 [P-0010, 4-[4-(1H-benzimidazol-2-yl)piperazin-1-yl]-6-(1-methylpyrazol-4-yl)-7H-pyrrolo[2,3-d]pyrimidine]
- IC50 (c-kit mutant D816V): 0.0001 to 1 µM
- IC50 (c-kit kinase): 0.0001 to 1 µM

Structure (SMILES): C[C@H](NC(=O)N1CCN(c2ncnc3[nH]c(-c4ccc(F)cc4)cc23)C[C@H]1C)c1ccc(Cl)cc1 [P-0029, (2R)-N-[(1S)-1-(4-chlorophenyl)ethyl]-4-[6-(4-fluorophenyl)-7H-pyrrolo[2,3-d]pyrimidin-4-yl]-2-methyl-piperazine-1-carboxamide]
- IC50 (c-kit mutant D816V): 0.0001 to 1 µM
- IC50 (c-kit kinase): 10 to 200 µM

Structure (SMILES): O=S(=O)(Nc1ccc(Cl)cc1)c1ccc(-c2ncnc3[nH]c(-c4ccc(F)cc4)cc23)c(F)c1 [P-0327, N-(4-chlorophenyl)-3-fluoro-4-[6-(4-fluorophenyl)-7H-pyrrolo[2,3-d]pyrimidin-4-yl]benzenesulfonamide]
- IC50 (c-kit mutant D816V): 0.0001 to 1 µM
- IC50 (c-kit kinase): 10 to 200 µM

Structure (SMILES): C[C@H](NC(=O)N1CCN(c2ncnc3cc(N4CCOCC4)sc23)CC1(C)C)c1cccc(Cl)c1 [P-0558, N-[(1S)-1-(3-chlorophenyl)ethyl]-2,2-dimethyl-4-(6-morpholinothieno[3,2-d]pyrimidin-4-yl)piperazine-1-carboxamide]
- IC50 (c-kit mutant D816V): 0.0001 to 1 µM
- IC50 (c-kit kinase): 1 to 10 µM

Structure (SMILES): Cc1cc2c(-c3ccc(S(=O)(=O)Nc4ccc(F)cc4)cc3F)ncnc2[nH]1 [P-0336, 3-fluoro-N-(4-fluorophenyl)-4-(6-methyl-7H-pyrrolo[2,3-d]pyrimidin-4-yl)benzenesulfonamide]
- IC50 (c-kit mutant D816V): 1 to 10 µM
- IC50 (c-kit kinase): 10 to 200 µM

Structure (SMILES): Cc1cc2c(-c3ccc(NS(=O)(=O)c4ccc(F)cc4)cc3F)ncnc2[nH]1 [P-0362, 4-fluoro-N-[3-fluoro-4-(6-methyl-7H-pyrrolo[2,3-d]pyrimidin-4-yl)phenyl]benzenesulfonamide]
- IC50 (c-kit mutant D816V): 0.0001 to 1 µM
- IC50 (c-kit kinase): 1 to 10 µM

Structure (SMILES): COc1ccc(S(=O)(=O)Nc2ccc(-c3ncnc4[nH]c(C)cc34)cc2)cc1 [P-0326, 4-methoxy-N-[4-(6-methyl-7H-pyrrolo[2,3-d]pyrimidin-4-yl)phenyl]benzenesulfonamide]
- IC50 (c-kit mutant D816V): 1 to 10 µM
- IC50 (c-kit kinase): 1 to 10 µM

Structure (SMILES): C[C@H](NC(=O)N1CCN(c2ncnc3[nH]c(-c4ccc(F)cc4)cc23)CC1(C)C)c1ccc(F)cc1 [P-0642, N-[(1S)-1-(4-fluorophenyl)ethyl]-4-[6-(4-fluorophenyl)-7H-pyrrolo[2,3-d]pyrimidin-4-yl]-2,2-dimethyl-piperazine-1-carboxamide]
- IC50 (c-kit mutant D816V): 0.0001 to 1 µM
- IC50 (c-kit kinase): 1 to 10 µM

Structure (SMILES): COc1cccc([C@@H](C)NC(=O)N2CCN(c3ncnc4[nH]c(-c5ccc(F)cc5)cc34)C[C@H]2C)c1 [P-0032, (2R)-4-[6-(4-fluorophenyl)-7H-pyrrolo[2,3-d]pyrimidin-4-yl]-N-[(1R)-1-(3-methoxyphenyl)ethyl]-2-methyl-piperazine-1-carboxamide]
- IC50 (c-kit mutant D816V): 1 to 10 µM
- IC50 (c-kit kinase): 10 to 200 µM
